Read-outs that look alike come from different tables or passages of the source.

In data set [1] the test system is LO2 cell lines (normal liver cell). The note with it: for IC50: read-out: IC50 LO2.
Data set [2] has as its system WI38 normal cells. Nature of the data set: cells. The note with it: Homo sapiens, WI-38, read-out: IC50 WI38.
For data set [3], the system named is A549. The data set can be described thus: cells. It counts as cell-based.
In data set [4] the test system is HepG2 cell lines (liver tumor cell). Nature of the data set: cells. The note with it: Homo sapiens, HepG2, 24 h, read-out: IC50 HepG2.
Data set [5] has the same test system. The following applies: for IC50: read-out: IC50 HepG2.
Data set [6] deals with WI38 normal cells. The note with it: for IC50: read-out: IC50 WI38.
Data set [7] deals with LO2 cell lines (normal liver cell). The data set can be described thus: cells. The note with it: Homo sapiens, L02, 24 h, read-out: IC50 LO2.
For data set [8], the system named is HeLa. Nature of the data set: cells. Type of data set: cell-based. The following applies: read-out: IC50 against cell proliferation, HeLa.
The subject of data set [9] is MCF-7. The data set can be described thus: cells. Type of data set: cell-based.
Data set [10] can be described thus: H2S release, methylene blue (MB+) method. Type of data set: physicochemical. The following applies: MB+ method with TECP or cysteine; different temperature and pH.
For data set [11], the system named is AKT. The data set can be described thus: In vitro AKT enzyme inhibitory assay. Type of data set: biochemical.
The target in data set [12] is PI3Kβ (Homo sapiens, UniProt P42338). Nature of the data set: In vitro PI3K enzyme inhibitory assay (ADP-Glo), PI3Kβ. The note with it: read-out: PI3Kβ % inhibition at 10 μM. It counts as biochemical.
Data set [13] concerns the target PI3Kγ (Homo sapiens, UniProt P48736). Nature of the data set: In vitro PI3K enzyme inhibitory assay (ADP-Glo), PI3Kγ. Type of data set: biochemical. The note with it: read-out: PI3Kγ % inhibition at 10 μM.
In data set [14] the target is PI3Kα (Homo sapiens, UniProt P42336). Nature of the data set: In vitro PI3K enzyme inhibitory assay (ADP-Glo), PI3Kα. It counts as biochemical. The note with it: read-out: PI3Kα % inhibition at 10 μM.
[15] abbreviates: Homo sapiens, A549, read-out: IC50 against cell proliferation, A549.
The mark [16] stands for this setting: Homo sapiens, MCF7, read-out: IC50 against cell proliferation, MCF-7.
Setting [17] is: read-out: IC50 against cell proliferation, A549.
[18] abbreviates: read-out: IC50 against cell proliferation, MCF-7.

PI3Kγ, sequence (P48736 whole entry): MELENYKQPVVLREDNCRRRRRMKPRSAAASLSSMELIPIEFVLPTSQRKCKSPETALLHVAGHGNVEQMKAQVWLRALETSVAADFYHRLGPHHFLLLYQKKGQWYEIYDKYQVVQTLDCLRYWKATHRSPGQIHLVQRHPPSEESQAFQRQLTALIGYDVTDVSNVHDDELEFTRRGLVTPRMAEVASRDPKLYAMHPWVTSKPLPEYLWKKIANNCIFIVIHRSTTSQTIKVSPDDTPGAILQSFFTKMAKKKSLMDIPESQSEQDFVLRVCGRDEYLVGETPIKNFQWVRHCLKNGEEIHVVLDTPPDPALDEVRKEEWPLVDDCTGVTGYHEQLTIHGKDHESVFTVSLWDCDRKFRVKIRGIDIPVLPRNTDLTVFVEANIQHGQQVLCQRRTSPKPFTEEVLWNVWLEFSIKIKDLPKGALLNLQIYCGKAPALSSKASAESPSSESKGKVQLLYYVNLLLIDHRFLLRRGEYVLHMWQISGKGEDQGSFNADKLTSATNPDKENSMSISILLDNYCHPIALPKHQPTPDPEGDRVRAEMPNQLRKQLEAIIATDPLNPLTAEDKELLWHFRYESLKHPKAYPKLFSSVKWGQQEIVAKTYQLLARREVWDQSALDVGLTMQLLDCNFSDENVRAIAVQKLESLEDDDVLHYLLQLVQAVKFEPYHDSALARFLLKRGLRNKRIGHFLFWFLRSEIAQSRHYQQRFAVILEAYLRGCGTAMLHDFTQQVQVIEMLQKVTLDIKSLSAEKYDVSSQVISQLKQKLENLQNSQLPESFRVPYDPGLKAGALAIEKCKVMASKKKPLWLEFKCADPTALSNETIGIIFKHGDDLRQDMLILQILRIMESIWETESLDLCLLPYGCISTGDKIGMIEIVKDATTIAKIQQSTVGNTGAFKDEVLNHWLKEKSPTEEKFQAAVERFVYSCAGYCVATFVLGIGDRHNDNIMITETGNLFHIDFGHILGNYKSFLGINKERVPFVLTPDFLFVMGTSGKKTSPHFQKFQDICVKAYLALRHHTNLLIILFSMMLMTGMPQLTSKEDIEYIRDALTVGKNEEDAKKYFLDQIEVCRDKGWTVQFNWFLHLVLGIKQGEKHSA
PI3Kβ, sequence (P42338 whole entry): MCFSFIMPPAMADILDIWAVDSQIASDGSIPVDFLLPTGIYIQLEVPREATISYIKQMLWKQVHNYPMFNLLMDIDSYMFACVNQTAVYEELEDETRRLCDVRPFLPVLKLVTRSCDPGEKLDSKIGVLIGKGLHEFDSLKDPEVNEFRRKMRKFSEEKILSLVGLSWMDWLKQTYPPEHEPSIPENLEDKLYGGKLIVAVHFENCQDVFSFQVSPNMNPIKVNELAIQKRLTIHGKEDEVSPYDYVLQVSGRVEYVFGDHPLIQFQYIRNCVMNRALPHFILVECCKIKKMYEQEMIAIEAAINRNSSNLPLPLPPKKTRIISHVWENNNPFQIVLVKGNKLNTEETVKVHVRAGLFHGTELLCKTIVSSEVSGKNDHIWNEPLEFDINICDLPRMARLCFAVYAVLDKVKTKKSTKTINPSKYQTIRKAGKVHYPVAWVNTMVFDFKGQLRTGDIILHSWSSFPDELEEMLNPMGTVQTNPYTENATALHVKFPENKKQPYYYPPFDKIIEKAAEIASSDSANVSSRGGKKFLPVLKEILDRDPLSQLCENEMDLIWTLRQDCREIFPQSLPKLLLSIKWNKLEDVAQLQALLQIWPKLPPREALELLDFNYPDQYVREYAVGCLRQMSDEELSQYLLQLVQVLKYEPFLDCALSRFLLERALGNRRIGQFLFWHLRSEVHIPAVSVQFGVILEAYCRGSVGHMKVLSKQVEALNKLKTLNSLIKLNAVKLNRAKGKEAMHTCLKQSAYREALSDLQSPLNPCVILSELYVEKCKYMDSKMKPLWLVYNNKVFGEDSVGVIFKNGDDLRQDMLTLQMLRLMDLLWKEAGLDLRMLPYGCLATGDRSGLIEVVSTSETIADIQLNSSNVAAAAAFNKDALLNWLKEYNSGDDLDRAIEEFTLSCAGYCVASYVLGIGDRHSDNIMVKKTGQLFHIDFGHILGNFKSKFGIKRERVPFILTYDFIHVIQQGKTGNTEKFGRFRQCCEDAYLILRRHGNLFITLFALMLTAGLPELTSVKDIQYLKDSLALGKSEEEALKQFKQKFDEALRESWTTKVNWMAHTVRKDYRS
PI3Kβ, sequence (P27986 whole entry partner): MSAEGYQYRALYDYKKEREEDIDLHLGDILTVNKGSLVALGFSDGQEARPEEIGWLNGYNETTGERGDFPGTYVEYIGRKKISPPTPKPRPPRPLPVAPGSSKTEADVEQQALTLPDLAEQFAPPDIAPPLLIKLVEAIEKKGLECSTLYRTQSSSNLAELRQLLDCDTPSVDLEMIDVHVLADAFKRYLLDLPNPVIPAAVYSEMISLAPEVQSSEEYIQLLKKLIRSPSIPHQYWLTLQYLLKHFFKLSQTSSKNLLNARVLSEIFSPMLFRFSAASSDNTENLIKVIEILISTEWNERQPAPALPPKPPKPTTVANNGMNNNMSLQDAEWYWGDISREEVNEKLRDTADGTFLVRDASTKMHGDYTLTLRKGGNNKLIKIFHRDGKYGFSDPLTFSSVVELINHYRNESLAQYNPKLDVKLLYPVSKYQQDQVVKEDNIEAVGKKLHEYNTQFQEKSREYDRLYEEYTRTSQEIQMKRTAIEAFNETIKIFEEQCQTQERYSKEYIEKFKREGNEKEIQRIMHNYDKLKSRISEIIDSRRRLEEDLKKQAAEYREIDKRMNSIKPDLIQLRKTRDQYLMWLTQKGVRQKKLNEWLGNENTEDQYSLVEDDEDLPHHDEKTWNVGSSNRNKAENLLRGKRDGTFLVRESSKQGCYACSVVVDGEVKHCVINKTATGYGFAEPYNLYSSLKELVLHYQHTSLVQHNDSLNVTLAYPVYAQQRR
PI3Kα, sequence (P42336 whole entry): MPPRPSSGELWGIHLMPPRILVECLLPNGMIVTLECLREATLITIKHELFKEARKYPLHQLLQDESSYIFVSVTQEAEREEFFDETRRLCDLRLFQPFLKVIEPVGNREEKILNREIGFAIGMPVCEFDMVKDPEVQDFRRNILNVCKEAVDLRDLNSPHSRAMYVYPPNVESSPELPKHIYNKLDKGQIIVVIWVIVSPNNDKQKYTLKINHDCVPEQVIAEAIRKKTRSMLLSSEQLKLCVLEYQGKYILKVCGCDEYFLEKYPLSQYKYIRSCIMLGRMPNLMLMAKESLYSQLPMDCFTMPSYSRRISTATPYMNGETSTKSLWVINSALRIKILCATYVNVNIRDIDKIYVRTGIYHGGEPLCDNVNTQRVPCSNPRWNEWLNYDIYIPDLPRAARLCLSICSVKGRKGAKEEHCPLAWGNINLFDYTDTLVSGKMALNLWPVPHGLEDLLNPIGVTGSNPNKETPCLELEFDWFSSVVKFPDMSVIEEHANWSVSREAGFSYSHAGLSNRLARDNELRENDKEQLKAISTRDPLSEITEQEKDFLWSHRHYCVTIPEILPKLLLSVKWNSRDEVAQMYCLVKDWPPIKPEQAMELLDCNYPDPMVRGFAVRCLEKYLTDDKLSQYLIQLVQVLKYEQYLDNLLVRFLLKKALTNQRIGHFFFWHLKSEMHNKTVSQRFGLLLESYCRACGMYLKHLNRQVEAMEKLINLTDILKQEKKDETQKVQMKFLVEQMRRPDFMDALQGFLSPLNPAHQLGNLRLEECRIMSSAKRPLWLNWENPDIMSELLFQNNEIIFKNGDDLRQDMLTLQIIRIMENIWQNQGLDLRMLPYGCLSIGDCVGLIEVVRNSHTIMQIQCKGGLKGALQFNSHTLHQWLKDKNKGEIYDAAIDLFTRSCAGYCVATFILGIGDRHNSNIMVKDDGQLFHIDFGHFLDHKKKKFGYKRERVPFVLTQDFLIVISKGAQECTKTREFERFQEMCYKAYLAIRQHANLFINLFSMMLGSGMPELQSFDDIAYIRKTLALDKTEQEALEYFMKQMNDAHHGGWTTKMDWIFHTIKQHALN
PI3Kα, sequence (P27986 whole entry partner): as the sequence (P27986 whole entry partner) above

Regarding `S=P1(c2ccccc2)NCCO1` (stereo not drawn) [Compound S2, 2-phenyl-1,3,2-oxazaphospholidine 2-sulfide], in [1], the “Toxicity in words, LO2” value is “low cytotoxicity”. Moreover, the IC50 is more than 200 µM in data set [2]; 650 ± 32.5 µM in [3] (setting [15]); more than 400 µM in data set [4]; more than 200 µM in [7]; 736 ± 22.1 µM in [8] (Homo sapiens, HeLa); 455 ± 3.2 µM in [9] (setting [16]). Further, in data set [5], the “Toxicity in words, HepG2” value is given as “low cytotoxicity”. In [6], the “Toxicity in words, WI38” value was “low cytotoxicity”.

Take `S=P1(c2ccccc2)NCCCO1` (stereo not drawn) [Compound S3, 2-phenyl-1,3,2-oxazaphosphinane 2-sulfide]: the “Toxicity in words, LO2” value in [1] is reported as “low cytotoxicity”. In addition, the IC50 in [2] was more than 200 µM; in data set [3] (setting [15]), 700 ± 32.3 µM; in data set [4] it was more than 400 µM; in data set [7], more than 200 µM; in data set [8] (Homo sapiens, HeLa), 826 ± 17.1 µM; in data set [9] (setting [16]), 470 ± 4.1 µM. For the same compound, the “Toxicity in words, HepG2” value in data set [5] is “low cytotoxicity”. Further, the “Toxicity in words, WI38” value in [6] was “low cytotoxicity”.

Take `S=P1(c2ccccc2)NCCCCO1` (stereo not drawn) [Compound S4, 2-phenyl-1,3,2-oxazaphosphepane 2-sulfide]: the “Toxicity in words, LO2” value in [1] is recorded as “low cytotoxicity”. The IC50 in data set [2] was more than 200 µM; in data set [3] (setting [15]) it was 720 ± 22.4 µM; in data set [4] it was more than 400 µM; in data set [7], more than 200 µM; in data set [8] (Homo sapiens, HeLa), 836 ± 19.7 µM; in [9] (setting [16]), 472 ± 3.3 µM. Further, the “Toxicity in words, HepG2” value in data set [5] is on record as “low cytotoxicity”. Moreover, in data set [6], the “Toxicity in words, WI38” value is “low cytotoxicity”.

On to `S=P1(c2ccccc2)NCCCCCO1` (stereo not drawn) [Compound S5, 2-phenyl-1,3,2-oxazaphosphocane 2-sulfide], for which the “Toxicity in words, LO2” value in [1] is listed as “low cytotoxicity”. For the same compound, the IC50 in data set [2] is more than 200 µM; in data set [3] (setting [15]), 680 ± 20.5 µM; in [4] it was more than 400 µM; in data set [7] it was more than 200 µM; in data set [8] (Homo sapiens, HeLa), 622 ± 20.6 µM; in [9] (setting [16]), 468 ± 3.4 µM. Further, in [5], the “Toxicity in words, HepG2” value is “low cytotoxicity”. Further, the “Toxicity in words, WI38” value in data set [6] was “low cytotoxicity”.

In the case of `S=P1(c2ccccc2)NCCCCCCO1` (stereo not drawn) [Compound S6, 2-phenyl-1,3,2-oxazaphosphonane 2-sulfide], in data set [1], the “Toxicity in words, LO2” value was “low cytotoxicity”. Also, the IC50 in data set [2] is more than 200 µM; in data set [3] (setting [15]), 710 ± 22.6 µM; in data set [4], more than 400 µM; in [7] it was more than 200 µM; in data set [8] (Homo sapiens, HeLa), 645 ± 15.5 µM; in data set [9] (setting [16]) it was 471 ± 5.4 µM. Besides, the “Toxicity in words, HepG2” value in data set [5] is on record as “low cytotoxicity”. Further, the “Toxicity in words, WI38” value in [6] is reported as “low cytotoxicity”.

For `S=P1(c2ccccc2)NCCCCN1` [Compound S7, 2-phenyl-1,3,2-diazaphosphepane 2-sulfide], in data set [1], the “Toxicity in words, LO2” value is “low cytotoxicity”. Besides, the IC50 is more than 200 µM in data set [2]; 730 ± 32.3 µM in data set [3] (setting [15]); more than 400 µM in [4]; more than 200 µM in data set [7]; 655 ± 15.3 µM in data set [8] (Homo sapiens, HeLa); 473 ± 4.2 µM in data set [9] (setting [16]). For the same compound, the “Toxicity in words, HepG2” value in data set [5] is reported as “low cytotoxicity”. Besides, in data set [6], the “Toxicity in words, WI38” value was “low cytotoxicity”.

As to `S=P1(c2ccccc2)OCCCCO1` [Compound S8, 2-phenyl-1,3,2-dioxaphosphepane 2-sulfide], the “Toxicity in words, LO2” value in data set [1] is “low cytotoxicity”. For the same compound, the IC50 is more than 200 µM in data set [1]; 803 ± 20.8 µM in data set [3] (setting [17]); more than 400 µM in [5]; more than 200 µM in data set [6]; 730 ± 20.5 µM in [8]; 480 ± 3.8 µM in [9] (setting [18]). Moreover, in [5], the “Toxicity in words, HepG2” value is on record as “low cytotoxicity”. Also, the “Toxicity in words, WI38” value in data set [6] was “low cytotoxicity”.

In the case of `S=P1(c2ccccc2)NCNCN1` [Compound S9, 2-phenyl-1,3,5,2-triazaphosphinane 2-sulfide], in data set [1], the “Toxicity in words, LO2” value is “low cytotoxicity”. Besides, the IC50 is more than 200 µM in data set [2]; 590 ± 27.1 µM in data set [3] (setting [15]); more than 400 µM in data set [4]; more than 200 µM in data set [7]; 730 ± 20.7 µM in [8] (Homo sapiens, HeLa); 459 ± 3.7 µM in [9] (setting [16]). Moreover, the “Toxicity in words, HepG2” value in data set [5] is given as “low cytotoxicity”. Further, in data set [6], the “Toxicity in words, WI38” value is reported as “low cytotoxicity”.

Consider `S=P1(c2ccccc2)SCCS1` [Compound S10, 2-phenyl-1,3,2-dithiaphospholane 2-sulfide], for which, in data set [1], the “Toxicity in words, LO2” value is given as “low cytotoxicity”. Further, the IC50 in data set [2] was more than 200 µM; in data set [3] (setting [15]), 557 ± 18.5 µM; in data set [4], more than 400 µM; in data set [7], more than 200 µM; in data set [8] (Homo sapiens, HeLa), 603 ± 20.8 µM; in data set [9] (setting [16]), 455 ± 2.4 µM. Also, the “Toxicity in words, HepG2” value in [5] was “low cytotoxicity”. The “Toxicity in words, WI38” value in data set [6] is “low cytotoxicity”.

Turning to `S=P1(c2ccccc2)Oc2ccccc2-c2ccccc2O1` [Compound S12, 6-phenyldibenzo [d, f][1,3,2] dioxaphosphepine 6-sulfide], the “Toxicity in words, LO2” value in data set [1] is “low cytotoxicity”. Moreover, the IC50 is more than 200 µM in data set [2]; 640 ± 15.5 µM in data set [3] (setting [15]); more than 400 µM in data set [4]; more than 200 µM in data set [7]; 703 ± 17.7 µM in [8] (Homo sapiens, HeLa); 164 ± 4.1 µM in data set [9] (setting [16]). Also, the “Toxicity in words, HepG2” value in [5] was “low cytotoxicity”. Besides, the “Toxicity in words, WI38” value in data set [6] is given as “low cytotoxicity”.

In the case of `S=P1(c2ccccc2)OCc2ccccc2CO1` [Compound S13, 3-phenyl-1,5-dihydrobenzo [e] [1,3,2] dioxaphosphepine 3-sulfide], the “Toxicity in words, LO2” value in data set [1] is “low cytotoxicity”. Further, the IC50 was more than 200 µM in data set [2]; 500 ± 18.2 µM in data set [3] (setting [15]); more than 400 µM in [4]; more than 200 µM in [7]; 633 ± 18.3 µM in data set [8] (Homo sapiens, HeLa); 460 ± 3.5 µM in data set [9] (setting [16]). In addition, the “Toxicity in words, HepG2” value in data set [5] is listed as “low cytotoxicity”. In addition, the “Toxicity in words, WI38” value in data set [6] is recorded as “low cytotoxicity”.

For the compound `Cc1ccc2c(c1)NP(=S)(c1ccccc1)O2` (stereo not drawn) [Compound S14, 5-methyl-2-phenyl-3H benzo [d][1,3,2] oxazaphosphole 2-sulfide], the IC50 in data set [1] is more than 200 µM; in data set [3] (setting [17]), 220 ± 20.1 µM; in [5], more than 400 µM; in [6] it was more than 200 µM; in [8], 530 ± 11.3 µM; in [9] (setting [18]), 31 ± 2.5 µM. For the same compound, the “H2S release amount (in words)” value in data set [10] is on record as “the highest amount of hydrogen sulfide was released”.

For `S=P1(c2ccccc2)Oc2ccc3cccc4c5cccc6ccc(c(c2c34)c65)O1` [Compound S15, 2-phenylperyleno [1,12-def][1,3,2] dioxaphosphepine 2-sulfide], the IC50 in data set [2] was more than 200 µM; in [3] (setting [15]), 520 ± 22.7 µM; in data set [4], more than 400 µM; in data set [7], more than 200 µM; in data set [8] (Homo sapiens, HeLa) it was 733 ± 28.2 µM; in [9] (setting [16]), 266 ± 3.5 µM.

As for `N#Cc1ccc2c(c1)NP(=S)(c1ccccc1)O2` (stereo not drawn) [Compound S16, 2-phenyl-3H-benzo [d][1,3,2] oxazaphosphole-5-carbonitrile 2-sulfide], the IC50 in data set [1] is more than 200 µM; in [3] (setting [17]), 280 ± 28.3 µM; in data set [5] it was more than 400 µM; in data set [6] it was more than 200 µM; in data set [8] it was 520 ± 20.3 µM; in data set [9] (setting [18]), 28 ± 2.7 µM. Besides, the “H2S release amount (in words)” value in data set [10] is on record as “the highest amount of hydrogen sulfide was released”.

Turning to `Oc1cccc(-c2nc(N3CCOCC3)c3oc4ncccc4c3n2)c1` [PI-103, reference compound], the “AKT % inhibition at 10 μM” value in data set [11] was 100%. Further, the results for the inhibition at 10 µM in [12], in [13] and in data set [14] were 5%, 12% and 100%, respectively.

The values are drawn from PMC11790660 (Frontiers in Chemistry, 2025).
